Assay results published in US7279576B2 (Deciphera Pharmaceuticals, LLC, priority 2002, dated 2007).

biological target: T1, nonphosphorylated Abl kinase (Homo sapiens, UniProt P00519); assay: Abl kinase assay (continuous spectrophotometric, pyruvate kinase/lactate dehydrogenase coupled); format: biochemical; details: not given
T1 construct: purchased deCode Abl-2
Experimental: A continuous spectrophotometric kinase assay is used, wherein the production of adenosine diphosphate is coupled to the oxidation of NADH and measured as a reduction in absorbance at 340 nm. For details see: Barker, S. C. et al, Biochemistry (1995) 34:14843; and Schindler, T. et al, Science (2000) 289:1938.
The reaction mixture (200 μl) contained Abl kinase (3.7 nM. Abl-2 from deCode), peptide substrate ([…], 0.5 mM), ATP (0.5 mM), MgCl2 (5 mM), pyruvate kinase (16 units), lactate dehydrogenase (26 units), phosphoenol pyruvate (1 mM), and NADH (0.28 mM) in 100 mM Tris buffer, pH 7.5. The reaction was initiated by adding ATP. The absorption at 340 nm was monitored continuously for 3 to 4 hours at 30° C. on Polarstar Optima plate reader (BMG). Under these conditions, a turn over number (kcat) of 1.4 s^−1 was obtained for the preparation of Abl kinase, which is similar to that (1.7 s^−1) reported for the nonphosphorylated enzyme (Brasher and Van Etten, JBC (2000) 275, 35631-35637). No autophosphorylation of Abl was observed under these conditions since the rate is constant throughout the entire reaction time and presumably because the concentration of the enzyme used is below the critical level (˜10 nM) needed for the autophosphorylation (Brasher and Van Etten, JBC (2000) 275, 35631-35637).
Percentage of inhibition in the presence of an inhibitor was obtained by comparison of reaction rate (or slope) with that of a control. IC50 value was calculated from a series of % inhibition values determined at a range of concentrations of the inhibitor using Prism.

T1 sequence (P00519 whole entry): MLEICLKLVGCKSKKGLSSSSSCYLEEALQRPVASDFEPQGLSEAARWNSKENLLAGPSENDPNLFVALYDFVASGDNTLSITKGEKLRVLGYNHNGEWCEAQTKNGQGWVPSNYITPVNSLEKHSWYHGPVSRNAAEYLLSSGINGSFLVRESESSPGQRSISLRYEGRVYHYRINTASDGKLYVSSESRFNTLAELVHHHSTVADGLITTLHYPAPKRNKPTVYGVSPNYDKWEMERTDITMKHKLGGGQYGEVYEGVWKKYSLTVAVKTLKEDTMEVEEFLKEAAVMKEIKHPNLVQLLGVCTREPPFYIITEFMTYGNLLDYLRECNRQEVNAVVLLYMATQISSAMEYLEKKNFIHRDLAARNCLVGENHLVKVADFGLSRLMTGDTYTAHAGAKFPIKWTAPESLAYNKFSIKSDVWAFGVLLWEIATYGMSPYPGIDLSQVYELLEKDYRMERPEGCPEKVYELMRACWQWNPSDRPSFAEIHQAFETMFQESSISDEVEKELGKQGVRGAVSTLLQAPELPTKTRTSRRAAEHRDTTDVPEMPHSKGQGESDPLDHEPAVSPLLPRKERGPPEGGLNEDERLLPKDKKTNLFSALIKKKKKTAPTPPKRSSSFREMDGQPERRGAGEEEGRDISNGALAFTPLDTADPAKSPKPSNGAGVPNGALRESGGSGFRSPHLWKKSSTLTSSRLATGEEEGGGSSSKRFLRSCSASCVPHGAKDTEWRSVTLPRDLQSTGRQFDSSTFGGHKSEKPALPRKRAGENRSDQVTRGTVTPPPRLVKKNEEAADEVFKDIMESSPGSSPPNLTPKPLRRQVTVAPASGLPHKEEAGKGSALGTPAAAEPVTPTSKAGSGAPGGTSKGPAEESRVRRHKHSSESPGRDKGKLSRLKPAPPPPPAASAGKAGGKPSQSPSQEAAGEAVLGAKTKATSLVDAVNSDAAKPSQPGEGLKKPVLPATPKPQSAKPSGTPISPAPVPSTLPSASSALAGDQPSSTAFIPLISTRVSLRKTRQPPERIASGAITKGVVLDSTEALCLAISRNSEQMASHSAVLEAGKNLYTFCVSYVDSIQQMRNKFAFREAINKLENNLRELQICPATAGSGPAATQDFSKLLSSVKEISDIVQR

SMILES	IC50
Cc1ccc(NC(=O)c2ccc(C(=O)N3C(=O)OC[C@@H]3c3ccccc3)cc2)cc1Nc1nccc(-c2cccnc2)n1 [Example 19, L-4-(2-oxo-4-phenyl-oxazolidine-3-carbonyl)-N-[4-methyl-3-(4-pyridin-3-yl-pyrimidin-2-ylamino)-phenyl]benzamide]	4 µM
Cc1ccc(NC(=O)c2ccc(C(=O)N3C(=O)OC[C@H]3c3ccccc3)cc2)cc1Nc1nccc(-c2cccnc2)n1 [Example 18, D-4-(2-oxo-4-phenyl-oxazolidine-3-carbonyl)-N-[4-methyl-3-(4-pyridin-3-yl-pyrimidin-2-ylamino)-phenyl]benzamide]	3 µM

same assay, conditions: read-out: % Inhi @ 10 uM

SMILES	inhibition at 10 µM
Cc1ccc(NC(=O)c2ccc(CN3CC(=O)N(C)C3=O)cc2)cc1Nc1ncccn1 [Example 5, 4-((3-methyl-2,4-dioxoimidazolidin-1-yl)methyl)-N-(4-methyl-3-(pyrimidin-2-ylamino)phenyl)benzamide]	9%
CNC(=O)CN(CC(=O)NC)C(=O)c1ccc(C(=O)Nc2ccc(C)c(Nc3ncccn3)c2)cc1 [Example 7, N^1,N^1-bis((methylcarbamoyl)methyl)-N^4-(4-methyl-3-(pyrimidin-2-ylamino)phenyl)terephthalamide]	9%
Cc1ccc(NC(=O)c2ccc(CNS(=O)(=O)NC(=O)N3CCCC3)cc2)cc1Nc1nccc(-c2ccccc2)n1 [Example 1]	10%
Cc1ccc(NC(=O)c2ccc(CN3CC(=O)NS3(=O)=O)cc2)cc1Nc1nccc(-c2ccccc2)n1 [Example 23]	10%
Cc1ccc(NC(=O)c2ccc(C(=O)N3C(=O)OC[C@H]3c3ccccc3)cc2)cc1Nc1nccc(-c2ccccc2)n1 [Example 16, D-4-(2-oxo-4-phenyl-oxazolidine-3-carbonyl)-N-(4-methyl-3-(4-phenylpyrimidin-2-ylamino)phenyl)benzamide]	9%
Cc1ccc(NC(=O)c2ccc(C(=O)N3C(=O)OC[C@@H]3c3ccccc3)cc2)cc1Nc1nccc(-c2ccccc2)n1 [Example 17, L-4-(2-oxo-4-phenyl-oxazolidine-3-carbonyl)-N-(4-methyl-3-(4-phenylpyrimidin-2-ylamino)phenyl)benzamide]	18%
Cc1ccc(NC(=O)c2ccc(CN3C(=O)CNS3(=O)=O)cc2)cc1Nc1nccc(-c2ccccc2)n1 [Example 12, N-[4-Methyl-3-(4-phenyl-pyrimidin-2-ylamino)-phenyl]-4-(1,1,3-trioxo-[1,2,5]thiadiazolidin-2-ylmethyl)-benzamide]	52%
Cc1ccc(NC(=O)c2ccc(CNC(=O)NS(=O)(=O)N3CCCC3)cc2)cc1Nc1ncccn1 [Example 4]	24%
Cc1ccc(NC(=O)c2ccc(CNC(=O)NS(=O)(=O)N3CCCC3)cc2)cc1Nc1nccc(-c2ccccc2)n1 [Example 3]	15%
CNC(=O)CN(CC(=O)NC)C(=O)c1ccc(C(=O)Nc2ccc(C)c(Nc3nccc(-c4ccccc4)n3)c2)cc1 [Example 8, N^1,N^1-bis((methylcarbamoyl)methyl)-N^4-(3-(4-phenylpyrimidin-2-ylamino)4-methylphenyl)terephthalamide]	20%
Cc1ccc(NC(=O)c2ccc(CN3CCS(=O)(=O)CC3)cc2)cc1Nc1ncccn1 [Example 13, 4-(((4,4-dioxothiomorpholinomethyl)1)methyl)-N-(4-methyl-3-(pyrimidin-2-ylamino)phenyl)benzamide]	31%
Cc1ccc(NC(=O)c2ccc(C(=O)N3C(=O)OC[C@@H]3c3ccccc3)cc2)cc1Nc1nccc(-c2cccnc2)n1 [Example 19, L-4-(2-oxo-4-phenyl-oxazolidine-3-carbonyl)-N-[4-methyl-3-(4-pyridin-3-yl-pyrimidin-2-ylamino)-phenyl]benzamide]	75%
Cc1ccc(NC(=O)c2ccc(CN3CC(=O)N(C)C3=O)cc2)cc1Nc1nccc(-c2ccccc2)n1 [Example 6, N-(3-(4-phenylpyrimidin-2-ylamino)-4-methylphenyl)-4-((3-methyl-2,4-dioxoimidazolidin-1-yl)methyl)benzamide]	13%
Cc1ccc(NC(=O)c2ccc(Cn3c(=O)[nH]n(C)c3=O)cc2)cc1Nc1ncccn1 [Example 21, 4-((1-methyl-3,5-dioxo-1,2,4-triazolidin-4-yl)methyl)-N-(4-methyl-3-(pyrimidin-2-ylamino)phenyl)benzamide]	12%
Cc1ccc(NC(=O)c2ccc(CN3CC(=O)NS3(=O)=O)cc2)cc1Nc1nccc(-c2cccnc2)n1 [Example 10]	16%
Cc1ccc(NC(=O)c2ccc(CNS(=O)(=O)NC(=O)N3CCCC3)cc2)cc1Nc1ncccn1 [Example 2]	9%
Cc1ccc(NC(=O)c2ccc(Cn3sc(=O)n(-c4ccccc4)c3=O)cc2)cc1Nc1nccc(-c2ccccc2)n1 [Example 9, N-(3-(4-phenylpyrimidin-2-ylamino)-4-methylphenyl)-4-((3,5-dioxo-4-phenyl-1,2,4-thiadiazolidin-2-yl)methyl)benzamide]	42%
Cc1ccc(NC(=O)c2ccc(C(=O)N3C(=O)OC[C@H]3c3ccccc3)cc2)cc1Nc1nccc(-c2cccnc2)n1 [Example 18, D-4-(2-oxo-4-phenyl-oxazolidine-3-carbonyl)-N-[4-methyl-3-(4-pyridin-3-yl-pyrimidin-2-ylamino)-phenyl]benzamide]	70%
Cc1ccc(NC(=O)c2ccc(CN3CCS(=O)(=O)CC3)cc2)cc1Nc1nccc(N2CCOCC2)n1 [Example 15, 4-(((4,4-dioxothiomorpholinomethyl)1)methyl)-N-(4-methyl-3-(4-morpholinopyrimidin-2-ylamino)phenyl)benzamide]	7%
